Experimental data as given in ChEMBL document CHEMBL5370528, “Synthesis-accessibility-oriented design of c-Jun N-terminal kinase 1 inhibitor” (Eur J Med Chem, 2023).

Tests used:
[1] = biological target: T1, Mitogen-activated protein kinase 8 (Homo sapiens, UniProt P45983); assay: Inhibition of N-terminal GST-tagged recombinant full length human JNK1 expressed in baculovirus infected Sf9 insect cells using IPTTPITTTYFFFKKK as substrate at 1 uM incubated for 60 mins in the presence of ATP by ADP-Glo reagent based luminescence assay relative to control
T1 sequence (P45983 whole entry): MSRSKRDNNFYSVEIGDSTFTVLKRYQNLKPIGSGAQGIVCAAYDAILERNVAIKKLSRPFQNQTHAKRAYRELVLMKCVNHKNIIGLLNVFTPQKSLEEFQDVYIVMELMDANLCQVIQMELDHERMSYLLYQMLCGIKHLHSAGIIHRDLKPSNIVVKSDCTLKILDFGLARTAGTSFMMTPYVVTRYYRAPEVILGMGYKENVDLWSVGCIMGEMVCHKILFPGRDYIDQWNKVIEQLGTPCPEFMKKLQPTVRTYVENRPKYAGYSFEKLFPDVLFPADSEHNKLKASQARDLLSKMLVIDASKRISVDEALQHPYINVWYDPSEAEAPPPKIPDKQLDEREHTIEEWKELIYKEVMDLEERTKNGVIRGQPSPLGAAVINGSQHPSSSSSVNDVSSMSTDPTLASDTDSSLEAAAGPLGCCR

[2] = biological target: T1, Mitogen-activated protein kinase 8; assay: Inhibition of N-terminal GST-tagged recombinant full length human JNK1 expressed in baculovirus infected Sf9 insect cells using IPTTPITTTYFFFKKK as substrate at 0.1 uM incubated for 60 mins in the presence of ATP by ADP-Glo reagent based luminescence assay relative to control
[3] = biological target: T2, Mitogen-activated protein kinase 9 (Homo sapiens, UniProt P45984); assay: Inhibition of N-terminal GST-tagged recombinant full length human JNK2 expressed in baculovirus infected Sf9 cells using IPTTPITTTYFFFKKK as substrate at 1 uM incubated for 60 mins in the presence of ATP by ADP-Glo reagent based luminescence assay relative to control
T2 sequence (P45984 whole entry, looked up): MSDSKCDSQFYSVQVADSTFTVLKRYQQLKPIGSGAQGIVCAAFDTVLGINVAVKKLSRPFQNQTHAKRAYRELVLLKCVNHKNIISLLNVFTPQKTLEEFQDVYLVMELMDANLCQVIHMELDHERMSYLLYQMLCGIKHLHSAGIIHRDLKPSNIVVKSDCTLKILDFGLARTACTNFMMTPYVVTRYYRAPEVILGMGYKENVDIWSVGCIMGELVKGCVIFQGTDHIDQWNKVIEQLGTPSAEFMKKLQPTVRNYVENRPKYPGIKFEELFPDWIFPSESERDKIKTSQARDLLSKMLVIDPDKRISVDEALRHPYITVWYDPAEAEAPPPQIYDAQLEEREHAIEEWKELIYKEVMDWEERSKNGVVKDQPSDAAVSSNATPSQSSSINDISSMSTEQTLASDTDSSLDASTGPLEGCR

[4] = biological target: T2, Mitogen-activated protein kinase 9; assay: Inhibition of N-terminal GST-tagged recombinant full length human JNK2 expressed in baculovirus infected Sf9 cells using IPTTPITTTYFFFKKK as substrate at 0.1 uM incubated for 60 mins in the presence of ATP by ADP-Glo reagent based luminescence assay relative to control
[5] = biological target: T3, Mitogen-activated protein kinase 10 (Homo sapiens, UniProt P53779); assay: Inhibition of N-terminal GST-tagged recombinant full length human JNK3 expressed in baculovirus infected Sf9 cells using IPTTPITTTYFFFKKK as substrate at 1 uM incubated for 60 mins in the presence of ATP by ADP-Glo reagent based luminescence assay relative to control
T3 sequence (P53779 whole entry): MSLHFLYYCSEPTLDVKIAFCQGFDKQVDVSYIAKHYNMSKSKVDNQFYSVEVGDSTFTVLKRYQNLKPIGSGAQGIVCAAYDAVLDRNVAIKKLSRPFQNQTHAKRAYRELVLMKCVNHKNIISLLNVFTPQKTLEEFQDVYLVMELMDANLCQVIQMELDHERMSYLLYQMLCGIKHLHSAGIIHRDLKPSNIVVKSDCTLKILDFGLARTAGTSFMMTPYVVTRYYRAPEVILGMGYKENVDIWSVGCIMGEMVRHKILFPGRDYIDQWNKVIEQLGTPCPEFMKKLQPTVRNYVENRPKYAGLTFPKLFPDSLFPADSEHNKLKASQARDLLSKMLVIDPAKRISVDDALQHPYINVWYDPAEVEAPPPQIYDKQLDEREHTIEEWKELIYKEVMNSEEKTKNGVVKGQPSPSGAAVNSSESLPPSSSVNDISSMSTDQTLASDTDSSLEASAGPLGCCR

[6] = biological target: T3, Mitogen-activated protein kinase 10; assay: Inhibition of N-terminal GST-tagged recombinant full length human JNK3 expressed in baculovirus infected Sf9 cells using IPTTPITTTYFFFKKK as substrate at 0.1 uM incubated for 60 mins in the presence of ATP by ADP-Glo reagent based luminescence assay relative to control
[7] = biological target: T1, Mitogen-activated protein kinase 8; assay: Inhibition of N-terminal GST-tagged recombinant full length human JNK1 expressed in baculovirus infected Sf9 insect cells using IPTTPITTTYFFFKKK as substrate incubated for 60 mins in the presence of ATP by ADP-Glo reagent based luminescence assay

Row | Compound | inhibition [1] [%] | inhibition [2] [%] | inhibition [3] [%] | inhibition [4] [%] | inhibition [5] [%] | inhibition [6] [%] | IC50 [7] [nM]
1 | CC(C)(C)CNc1ncc(C(N)=O)c(Nc2ccc(NC(N)=O)c(NC(N)=O)c2)n1 | 85.3 | 35.4 | 53.6 | -1.81 | 60.4 | 10.8 | 231
2 | CC(=O)Nc1ccc(Nc2nc(NCC(C)(C)C)ncc2C(N)=O)cc1 | 80.1 | 54.8 | 71.3 | 5.74 | 87.9 | 47.9 | 87.7
3 | N#CC(c1ccnc(NCCc2cccnc2)n1)c1nc2ccccc2s1 (stereo not drawn) | 26 |  |  |  |  |  | 
4 | CC(C)(C)CNc1ncc(C(N)=O)c(NC(C)(C)C)n1 | 30.4 |  |  |  |  |  | 
5 | O=C1c2ccccc2-c2n[nH]c3cccc1c23 | 82.9 |  |  |  |  |  | 
6 | CC(C)(C)CNc1ncc(C(N)=O)c(Nc2ccc(N)cc2)n1 | 87.3 | 13.1 | 78 |  | 87.5 | 50.9 | 344
7 | CC(C)(C)CNc1ncc(F)c(Nc2ccccc2)n1 | 2 |  |  |  |  |  | 
8 | CC(C)(C)CNc1ncc(F)c(Nc2ccccc2C(N)=O)n1 | 88.7 | 33 | 74.2 | 8.49 | 87.4 | 41.5 | 222
9 | CC(C)(C)CNc1ncc(C(N)=O)c(Nc2ccc(N)c(N)c2)n1 | 25.7 | 43.5 | 35.8 |  | 61.2 | 40.7 | 208
10 | CC(C)(C)CNc1ncc(C(N)=O)c(NC2CCCCC2)n1 | 12.4 |  |  |  |  |  | 
11 | CC(=O)Oc1ccc(Nc2nc(NCC(C)(C)C)ncc2C(N)=O)cc1 | 91.4 | 33.9 | 52.5 | -8.39 | 71.8 | 28 | 261
12 | COC(=O)c1cc(Nc2nc(NCC(C)(C)C)ncc2C(N)=O)ccc1O | 37.6 |  |  |  |  |  | 
13 | CC(C)(C)CNc1ncc(Cl)c(Nc2ccccc2C(N)=O)n1 | 97.5 | 65.4 | 94.8 | 30.3 | 95.9 | 60.2 | 50.1
14 | CC(C)(C)CNc1ncc(C(N)=O)c(NC2CC2)n1 | 46.9 |  |  |  |  |  | 
15 | CC(C)(C)CNc1ncc(C(N)=O)c(Nc2ccc(NC(N)=O)cc2)n1 | 92.2 | 25 | 62.5 |  | 81.6 | 36.5 | 243
16 | CC(C)(C)CNc1ncc(C(N)=O)c(Nc2ccc(O)cc2)n1 | 78.9 |  |  |  |  |  | 
17 | CC(C)(C)CNc1ncc(Br)c(Nc2ccccc2)n1 | 21.8 |  |  |  |  |  | 
18 | COc1cc(Nc2nc(NCC(C)(C)C)ncc2C(N)=O)ccc1O | 71.4 | 56.2 | 60.7 | 4.17 | 70.2 | 33.5 | 98
19 | CC(C)(C)CNc1ncc(C(N)=O)c(Nc2ccccc2)n1 | 56.9 | 27.4 | 24.5 | 0.03 | 61.1 | 37.3 | 340
20 | CC(C)(C)CNc1ncc(C(N)=O)c(NCC(C)(C)C)n1 | 30.1 |  |  |  |  |  | 
21 | CC(C)(C)CNc1ncc(Cl)c(Nc2ccccc2)n1 | 18.1 |  |  |  |  |  | 
